Data published in patent US20090018106A1, “INTRAVENOUS FORMULATIONS OF PYRIDOXAL 5'- PHOSPHATE AND METHOD OF PREPARATION” (Medicure International Inc., priority 2005, published 2009).
Like-named read-outs stand apart in the source and are kept apart here.

Assays:
Type in all cases: in vivo, human
[1] = Single intravenous dose escalation of P5P, plasma pharmacokinetics (Examples Two and Three); conditions: for Cmax / MRT / Tmax / Vd / clearance / AUC / half-life / AUC(0-t): both sexes, human, plasma; for Cmax / MRT / Tmax / Vd / clearance / AUC / half-life: iv; for AUC(0-t): read-out: AUC-T
Method: A phase one clinical trial was conducted to compare the pharmacokinetics of intravenously administered P5P and orally administered P5P. The trial was a single dose escalation study.
For intravenous administration, P5P was administered by bolus injection under fasting conditions. The following doses of P5P were studied: 1, 5, 10, and 20 mg/kg. 6 subjects were assigned to each dosage group.
P5P, pyridoxal, and 4-pyridoxic acid were evaluated in both plasma and urine over a 24 hour interval following either intravenous or oral dosing. The results are set out below in Tables 2 and 3.
Methodology—This was a single-blind, single-dose escalation, non-randomized, 4-phase, non-crossover study designed to evaluate the safety and […] subjects under fasting conditions and to estimate pharmacokinetic parameters of P5P.
Subjects were assigned to one of the four groups (six subjects per group) under fasting conditions.
Concentrations of pyridoxal-5′-phosphate (P5P) were measured from the plasma samples collected over a 24-bour interval after dosing in each phase.
Pharmacokinetic parameters: AUCt, AUCinf, Cmax, Tmax, Kel, Thalf, Vd, CL, MRT and F were estimated based on pyridoxal-5′-phosphate (P5P) plasma levels for each subject that was in the final data set.
The test product used was a P5P Intravenous Injectable Solution, 50 mg/ml, which was prepared in accordance with the methods of Example 1 (CanAm BioResearch Inc. Canada); Lot No.: LP1459: Manufacturing Date: 12/03. A single 1, 5, 10 or 20 mg/kg dose was given by intravenous injection. The duration of treatment was a single dose.
Secondary Endpoint—Pharmacokinetic (PK) Parameters—Plasma concentrations of pyridoxal-5′-phosphate (P5P) were measured by a validated analytical method. Based on these concentration levels, AUCt, AUCinf, Cmax, Tmax, Kel, Thalf, Vd, CL, MRT and F were estimated.
Statistical Methods—Descriptive statistics were calculated by treatments for the estimated pharmacokinetic parameters.

[2] = Cumulative urinary excretion after single intravenous dose of P5P (Example Three); conditions: for Cumulative Urinary Excretion as Percent of the Dose: Percent (CV %)
Method: P5P, pyridoxal, and 4-pyridoxic acid were evaluated in both plasma and urine over a 24 hour interval following either intravenous or oral dosing. The results are set out below in Tables 2 and 3. The urinary excretion of the unchanged P5P is negligible. Less than 0.5% of the administered dose was found as P5P in the urine (Table 10). Similarly, very little of the dose was excreted in urine as PAL, between approximately 2 to 3% of the total dose (Table 10). PA represented the largest amounts found in urine. Over a 24-hour interval, between 30% and 52% of the given dose was excreted in urine as 4-pyridoxic acid.

[3] = Once daily intravenous 10 mg/kg P5P for four days, urinary excretion and renal clearance (Example Four); conditions: 10 mg/kg iv once daily, 4 days, P5P uncorrected, mean; for CL renal: human, urine and plasma, iv, 10 mg/kg, read-out: CLR, renal clearance (converted)
Method: Data sets analyzed—Six (6) healthy, adult non-smokers were administered intravenously a single daily dose of 10 mg/kb of P5P for four consecutive days and completed the study. In accordance with the study protocol, data from all subjects who completed the study were used for pharmacokinetic and statistical analysis.
Analytical Methods—Plasma and urine samples were used for analysis. P5P, PAL, and PA levels were determined by HPLC/FLD. The quantitation level was 5 ng/mL for plasma and 100 ng/mL for urine. The sample analysis calibration curve range was 5 ng/mL to 5000 ng/mL for plasma and 100 ng/mL to 50,000 ng/mL for urine.
Total and Renal Clearance—Total body clearance was estimated for P5P and was calculated as Dose/AUC0-inf.

[4] = 1 mg/kg, Group 1, P5P 1 mg/kg single iv, plasma P5P, mean
[5] = 1 mg/kg, P5P 1 mg/kg single iv bolus, fasting
[6] = 5 mg/kg, Group 2, P5P 5 mg/kg single iv, plasma P5P, mean
[7] = 5 mg/kg, P5P 5 mg/kg single iv bolus, fasting
[8] = 10 mg/kg, Group 3, P5P 10 mg/kg single iv, plasma P5P, mean
[9] = 10 mg/kg, Group 4, dose 10 mg/kg, single iv, plasma P5P, mean
[10] = 10 mg/kg, P5P 10 mg/kg single iv bolus, fasting
[11] = 20 mg/kg, P5P 20 mg/kg single iv bolus, fasting
[12] = ln(pK Parameter) = b0 + b1 * ln (Dose)
[13] = ln(pK Parameter) = b0 + b1 * ln (Dose), single iv 1-20 mg/kg

SMILES: Cc1ncc(COP(=O)(O)O)c(C=O)c1O [P5P, Pyridoxal 5′-phosphate, reference compound]
- Kel ([1]; Group 1, P5P 1 mg/kg single iv, plasma P5P, mean): 0.14 h⁻¹
- Kel ([1]; Group 2, P5P 5 mg/kg single iv, plasma P5P, mean): 0.118 h⁻¹
- Kel ([1]; Group 3, P5P 10 mg/kg single iv, plasma P5P, mean): 0.12 h⁻¹
- Kel ([1]; Group 4, dose 10 mg/kg, single iv, plasma P5P, mean): 0.14 h⁻¹
- Cmax [1, 4]: 20 µg/mL
- MRT [1, 4]: 3.73 h
- Tmax [1, 4]: 8.4 min
- Vd [1, 4]: 13 L
- clearance [1, 4]: 29.3 mL/min
- AUC ([1]; 1 mg/kg, Group 1, P5P 1 mg/kg single iv, plasma P5P, mean, read-out: AUC (O-t)): 38.4 µg·h/mL
- AUC ([1]; 1 mg/kg, Group 1, P5P 1 mg/kg single iv, plasma P5P, mean, read-out: AUC (o-inf)): 39.1 µg·h/mL
- half-life ([1]; 1 mg/kg, Group 1, P5P 1 mg/kg single iv, plasma P5P, mean, read-out: T½ (converted)): 307 min
- Cmax [1, 5]: 20 ± 2.95 µg/mL
- Tmax [1, 5]: 8.4 ± 4.2 min
- half-life ([1]; 1 mg/kg, P5P 1 mg/kg single iv bolus, fasting, read-out: T½ (converted)): 307 ± 58.8 min
- Cmax [1, 6]: 98.8 µg/mL
- MRT [1, 6]: 3.52 h
- Tmax [1, 6]: 8.4 min
- Vd [1, 6]: 16.3 L
- clearance [1, 6]: 32.1 mL/min
- AUC ([1]; 5 mg/kg, Group 2, P5P 5 mg/kg single iv, plasma P5P, mean, read-out: AUC (O-t)): 173 µg·h/mL
- AUC ([1]; 5 mg/kg, Group 2, P5P 5 mg/kg single iv, plasma P5P, mean, read-out: AUC (o-inf)): 176 µg·h/mL
- half-life ([1]; 5 mg/kg, Group 2, P5P 5 mg/kg single iv, plasma P5P, mean, read-out: T½ (converted)): 353 min
- Cmax [1, 7]: 98.8 ± 16 µg/mL
- Tmax [1, 7]: 8.4 ± 4.2 min
- half-life ([1]; 5 mg/kg, P5P 5 mg/kg single iv bolus, fasting, read-out: T½ (converted)): 353 ± 23.4 min
- Cmax [1, 8]: 220 µg/mL
- MRT [1, 8]: 3.11 h
- Tmax [1, 8]: 6 min
- Vd [1, 8]: 18 L
- clearance [1, 8]: 35.2 mL/min
- AUC ([1]; 10 mg/kg, Group 3, P5P 10 mg/kg single iv, plasma P5P, mean, read-out: AUC (o-inf)): 312 µg·h/mL
- half-life ([1]; 10 mg/kg, Group 3, P5P 10 mg/kg single iv, plasma P5P, mean, read-out: T½ (converted)): 349 min
- Cmax [1, 9]: 424 µg/mL
- MRT [1, 9]: 3.32 h
- Tmax [1, 9]: 9 min
- Vd [1, 9]: 17.5 L
- clearance [1, 9]: 39.8 mL/min
- AUC ([1]; 10 mg/kg, Group 4, dose 10 mg/kg, single iv, plasma P5P, mean, read-out: AUC (O-t)): 577 µg·h/mL
- AUC ([1]; 10 mg/kg, Group 4, dose 10 mg/kg, single iv, plasma P5P, mean, read-out: AUC (o-inf)): 585 µg·h/mL
- half-life ([1]; 10 mg/kg, Group 4, dose 10 mg/kg, single iv, plasma P5P, mean, read-out: T½ (converted)): 302 min
- Cmax [1, 10]: 220 ± 9.52 µg/mL
- Tmax [1, 10]: 6 ± 1.8 min
- half-life ([1]; 10 mg/kg, P5P 10 mg/kg single iv bolus, fasting, read-out: T½ (converted)): 352 ± 53.4 min
- Cmax [1, 11]: 424 ± 96.9 µg/mL
- Tmax [1, 11]: 9 ± 4.2 min
- half-life ([1]; 20 mg/kg, P5P 20 mg/kg single iv bolus, fasting, read-out: T½ (converted)): 302 ± 43.2 min
- half-life ([1]; over all single iv doses of P5P (1-20 mg/kg), read-out: apparent elimination half-life (converted)): 300 to 360 min
- AUC(0-t) ([1]; P5P 1 mg/kg single iv bolus, fasting): 38.4 ± 4.61 µg·h/mL
- AUC(0-t) ([1]; P5P 5 mg/kg single iv bolus, fasting): 173 ± 31.9 µg·h/mL
- AUC(0-t) ([1]; P5P 10 mg/kg single iv bolus, fasting): 308 ± 45.5 µg·h/mL
- AUC(0-t) ([1]; P5P 20 mg/kg single iv bolus, fasting): 577 ± 62.5 µg·h/mL
- Significance of b1, lnAUCi [1, 12]: <0.0001
- Significance of b1, lnCl [1, 12]: 0.0128
- Significance of b1, lnCmax [1, 12]: <0.0001
- Significance of b1, lnMRT [1, 12]: 0.1568
- Significance of b1, lnThalf [1, 12]: 0.6177
- Coef. for Dose (b1), lnAUCi [1, 13]: 0.90
- Coef. for Dose (b1), lnCl [1, 13]: 0.10
- Coef. for Dose (b1), lnCmax [1, 13]: 1.03
- Coef. for Dose (b1), lnMRT [1, 13]: −0.05
- Coef. for Dose (b1), lnThalf [1, 13]: 0.02
- Intercept (b0), lnAUCi [1, 13]: 3.67
- Intercept (b0), lnCl [1, 13]: 7.44
- Intercept (b0), lnCmax [1, 13]: 2.98
- Intercept (b0), lnMRT [1, 13]: 1.29
- Intercept (b0), lnThalf [1, 13]: 1.67
- bioavailability, intravenous versus oral ([1]; single iv bolus vs single oral tablets): greater when intravenously administered rather than orally administered
- Cumulative Urinary Excretion as Percent of the Dose ([2]; Group 1, dose of P5P 1 mg/1 kg, single iv): 0.06 (161) Percent
- Cumulative Urinary Excretion as Percent of the Dose ([2]; Group 2, P5P 5 mg/kg single iv): 0.08 (96) Percent
- Cumulative Urinary Excretion as Percent of the Dose ([2]; Group 3, P5P 10 mg/kg single iv): 0.02 (167) Percent
- Cumulative Urinary Excretion as Percent of the Dose ([2]; Group 4, dose of P5P, single iv): 0.26 (73) Percent
- part of the administered dose found in urine ([2]; single iv P5P 1-20 mg/kg, 24-hour interval): Less than 0.5%
- Ae0-t, total amount excreted in urine ([3]; Day 1): 848625 ng
- Ae0-t, total amount excreted in urine ([3]; Day 4): 558650 ng
- CL renal ([3]; Day 1): 0.0465 mL/min
- CL renal ([3]; Day 4): 0.029 mL/min
